Data from patent US11091471B2, “Isoxazolyl ether derivatives as GABAA α5 PAM” (Hoffmann-La Roche Inc., priority 2016, dated 2021).

Assays:
h-GABA-A α5β3γ2 [1] = target: T1, h-GABA-A α5β3γ2 (Homo sapiens (Human), UniProt P18507+P31644); assay: [3H]flumazenil competition binding assay, membranes of HEK293 cells expressing human GABAA receptors; details: Table 1, displacement of [3H]-Flumazenil 0.5 nM, mean of two determinations
Protocol: The affinity of compounds at GABAA receptor subtypes was measured by competition for [3H]flumazenil (85 Ci/mmol; Roche) binding to HEK293 cells expressing rat (stably transfected) or human (transiently transfected) receptors of composition α1β3γ2, α2β3γ2, α3β3γ2 and α5β3γ2.
Cell pellets were suspended in Krebs-tris buffer (4.8 mM KCl, 1.2 mM CaCl2, 1.2 mM MgCl2, 120 mM NaCl, 15 mM Tris; pH 7.5; binding assay buffer), homogenized by polytron for ca. 20 sec on ice and centrifuged for 60 min at 4° C. (50000 g; Sorvall, rotor: SM24=20000 rpm). The cell pellets were resuspended in Krebs-tris buffer and homogenized by polytron for ca. 15 sec on ice. Protein was measured (Bradford method, Bio-Rad) and aliquots of 1 mL were prepared and stored at 80° C.
Assays were incubated to equilibrium for 1 hour at 4° C. and harvested onto GF/C uni-filters (Packard) by filtration using a Packard harvester and washing with ice-cold wash buffer (50 mM Tris; pH 7.5). After drying, filter-retained radioactivity was detected by liquid scintillation counting. Ki values were calculated using Excel-Fit (Microsoft) and are the means of two determinations.

h-GABA-A α5β3γ2 [2] = target: T1, h-GABA-A α5β3γ2; assay: Two-electrode voltage clamp electrophysiology in Xenopus oocytes expressing GABAA receptors, modulation of GABA EC20 current; assay type: cell-based; details: for Efficacy (GABA) %: % modulation of GABA EC20
Protocol: Xenopus laevis oocytes at maturation stages V-VI were used for the expression of cloned mRNA encoding GABAA receptor subunits. Oocytes ready for RNA micro-injection were bought from Ecocyte, Castrop-Rauxel, Germany and stored in modified Barth's medium (composition in mM: NaCl 88, KCl 1, NaHCO3 2.4, HEPES 10, MgSO4 0.82, CaNO3 0.33, CaCl2 0.33, pH=7.5) at 20° C. until the experiment.
Oocytes were plated in 96-well plates to be used in an automated instrument (Robo-ocyte, MultiChannelSystems, Reutlingen, Germany) for microinjection and electrophysiological recordings. Approximately 50 nl of an aqueous solution containing the RNA transcripts for the subunits of the desired GABAA receptor was injected into each oocyte.
Electrophysiological experiments were performed on days 3 to 5 after the micro-injection of mRNA. During the experiment the oocytes were constantly superfused by a solution containing (in mM) NaCl 90, KCl 1, HEPES 5, MgCl2 1, CaCl2 1 (pH 7.4). Oocytes were impaled by two glass microelectrodes (resistance: 0.4 MΩ) which were filled with a solution containing KCl 1M+K-acetate 1.5 M and voltage-clamped to −80 mV. The recordings were performed at room temperature using the Roboocyte two-electrode voltage clamp system (Multichannelsystem). After an initial equilibration period of 1.5 min GABA was added for 1.5 min at a concentration evoking approximately 20% of a maximal current response (EC20). After another rest interval of 2.5 min GABA was again added evoking a response of similar amplitude and shape. […] Current traces were recorded at a digitization rate of 10 Hz during and shortly before and after the GABA application.
Each compound and concentration was tested on at least 3 oocytes.
For the analysis, the digitized current traces of the first and second GABA response were superimposed and, if necessary, rescaled to equal maximal amplitudes. The ratio between the two responses during the time interval of test compound application was calculated point by point. The extremum of the resulting “ratio trace” was taken as the efficacy (“Fold increase”) of the compound expressed as “% modulation of GABA EC20” (100*(Fold increase−1)).

[3] = Table 1, GABA at EC20, test compound at approx. 30 fold its Ki, Xenopus oocytes
[4] = Table 2, reference compounds, GABAA α5β3γ2 overexpressing oocytes

Compound | Ki (h-GABA-A α5β3γ2 [1]) | Fold increase h-GABA-A α5β3γ2 oocyte (h-GABA-A α5β3γ2 [2]; [3]) | further results
Cc1ccc(-c2noc(C)c2COc2ccc(C(=O)NC(C)C(F)(F)F)nn2)cn1 (racemic) [Example 34, (RS)-6-((5-methyl-3-(6-methylpyridin-3-yl)isoxazol-4-yl)methoxy)-N-(1,1,1-trifluoropropan-2-yl)pyridazine-3-carboxamide] | 0.0132 µM |  | 
Cc1ccc(-c2noc(C)c2COc2ccc(C(=O)NC3CCS(=O)(=O)C3)nn2)cn1 (racemic) [Example 36, (RS)—N-(1,1-dioxothiolan-3-yl)-6-((5-methyl-3-(6-methylpyridin-3-yl)-1,2-oxazol-4-yl)methoxy)pyridazine-3-carboxamide] | 0.0058 µM |  | 
Cc1ccc(-c2noc(C)c2COc2ccc(C(=O)NC3CCOC3)nn2)cn1 (racemic) [Example 45, (RS)-6-((5-methyl-3-(6-methylpyridin-3-yl)isoxazol-4-yl)methoxy)-N-(tetrahydrofuran-3-yl)pyridazine-3-carboxamide] | 0.0066 µM |  | 
Cc1ccc(-c2noc(C)c2COc2ccc(C(=O)NC3CCOC(C)(C)C3)nn2)cn1 (racemic) [Example 58, (RS)—N-(2,2-dimethyltetrahydropyran-4-yl)-6-((5-methyl-3-(6-methylpyridin-3-yl)isoxazol-4-yl)methoxy)pyridazine-3-carboxamide] | 0.0161 µM |  | 
Cc1ccc(-c2noc(C)c2COc2ccc(C(=O)NC3(C)CCOC3)nn2)cn1 (racemic) [Example 75, (RS)-6-((5-methyl-3-(6-methylpyridin-3-yl)isoxazol-4-yl)methoxy)-N-(3-methyltetrahydrofuran-3-yl)pyridazine-3-carboxamide] | 0.0174 µM |  | 
Cc1ccc(-c2noc(C)c2COc2ccc(C(=O)N[C@@H]3CC[C@@H](O)C3)nn2)cn1 (racemic) [Example 152, N-((1RS,3RS)-3-hydroxycyclopentyl)-6-((5-methyl-3-(6-methylpyridin-3-yl)isoxazol-4-yl)methoxy)pyridazine-3-carboxamide] | 0.0053 µM |  | 
CO[C@@H]1CC[C@@H](NC(=O)c2ccc(OCc3c(-c4ccc(C)nc4)noc3C)nn2)C1 (racemic) [Example 166, trans-N-((1RS,3RS)-3-methoxycyclopentyl)-6-((5-methyl-3-(6-methylpyridin-3-yl)isoxazol-4-yl)methoxy)pyridazine-3-carboxamide] | 0.0076 µM | 1.7 | 
Cc1ccc(-c2noc(C)c2COc2ccc(C(=O)NC3CCCOCC3)nn2)cn1 (racemic) [Example 187, (RS)-6-((5-methyl-3-(6-methylpyridin-3-yl)isoxazol-4-yl)methoxy)-N-(oxepan-4-yl)pyridazine-3-carboxamide] | 0.0148 µM |  | 
Cc1ccc(-c2noc(C)c2COc2ccc(C(=O)N[C@H]3CCCC[C@H]3O)nn2)cn1 [Example 23, N-((1S,2R)-2-hydroxycyclohexyl)-6-((5-methyl-3-(6-methylpyridin-3-yl)isoxazol-4-yl)methoxy)pyridazine-3-carboxamide] | 0.0204 µM | 1.89 | 
Cc1ccc(-c2nocc2COc2ccc(C(=O)NC3CCOCC3)cn2)cn1 [Example 44, 6-((3-(6-methyl-3-pyridyl)isoxazol-4-yl)methoxy)-N-tetrahydropyran-4-yl-pyridine-3-carboxamide] | 0.0761 µM | 1.54 | 
Cc1ccc(-c2noc(C)c2COc2ccc(C(=O)NC(C)(C)CCS(C)(=O)=O)nn2)cn1 [Example 80, 6-((5-methyl-3-(6-methylpyridin-3-yl)isoxazol-4-yl)methoxy)-N-(2-methyl-4-(methylsulfonyl)butan-2-yl)pyridazine-3-carboxamide] | 0.0132 µM |  | 
Cc1ccc(-c2noc(C)c2COc2ccc(C(=O)N3C[C@@H]4C[C@H]3CO4)nn2)cn1 [Example 151, (1S,4S)-2-oxa-5-azabicyclo[2.2.1]heptan-5-yl(6-((5-methyl-3-(6-methylpyridin-3-yl)isoxazol-4-yl)methoxy)pyridazin-3-yl)methanone] | 0.0458 µM | 1.68 | 
O=C(N[C@H]1CCOC1)c1ccc(OCc2c(-c3ccc(Cl)nc3)noc2C2CC2)nn1 [Example 179, (S)-6-((3-(6-chloropyridin-3-yl)-5-cyclopropylisoxazol-4-yl)methoxy)-N-(tetrahydrofuran-3-yl)pyridazine-3-carboxamide] | 0.043 µM | 1.82 | 
Cc1onc(-c2ccccn2)c1COc1ccc(C(=O)NC2CCOCC2)cn1 [RO-272, reference compound] |  |  | Efficacy (GABA) % (h-GABA-A α5β3γ2 [2]; Table 2, reference compounds): −32%; Fold increase h-GABA-A α5β3γ2 oocyte (h-GABA-A α5β3γ2 [2]; [4]): 0.68
Cc1onc(-c2ccc(Cl)cn2)c1COc1ccc(C(=O)NC2CCOCC2)cn1 [RO-301, reference compound] |  |  | Efficacy (GABA) % (h-GABA-A α5β3γ2 [2]; Table 2, reference compounds): −18%; Fold increase h-GABA-A α5β3γ2 oocyte (h-GABA-A α5β3γ2 [2]; [4]): 0.82
COC(=O)c1cc2c(cn1)[nH]c1ccccc12 [β-CCM, reference compound] |  |  | inhibition of the GABA-evoked current (h-GABA-A α5β3γ2 [2]; positive control (NAM) at a maximally effective concentration): ~50%; Fold increase (h-GABA-A α5β3γ2 [2]; positive control at a maximally effective concentration, 3-6 oocytes per 96-well plate): ~0.5
